Assay results taken from US20230279023A1, “N/O-Linked Degrons and Degronimers for Protein Degradation” (C4 Therapeutics, Inc., priority 2019, published 2023).
pKd: −log10 of the molar value.

Biological target: CRBN-DDB1 (Homo sapiens (Human), UniProt Q96SW2)
Assay: Fluorescence polarization (FP) assay for compound ligand binding to CRBN-DDB1
Settings: FP displacement of (−)-Thalidomide-Alexa Fluor or Pomalidomide-fluorescein probe; 400 nM CRBN-DDB1, 5 nM probe; Additional Compounds of the Present Invention
Method: Measuring compound ligand binding to CRBN-DDB1 was carried out using an established sensitive and quantitative in vitro fluorescence polarization (FP) based binding assay. […] Compounds were dispensed from serially diluted DMSO stock into black 384-well compatible fluorescence polarization plates using an Echo acoustic dispenser. Compound binding to CRBN-DDB1 was measured by displacement of either a (−)-Thalidomide-Alexa Fluor® or Pomalidomide-fluorescein conjugated probe dye. […] Matching control wells excluding CRBN-DDB1 were used to correct for background fluorescence. Plates were read on an Envision plate reader with appropriate FP filter sets. The corrected S (perpendicular) and P (parallel) values were used to calculate fluorescence polarization (FP) with the following equation: […]

Sequence of CRBN-DDB1 (Q96SW2 whole entry): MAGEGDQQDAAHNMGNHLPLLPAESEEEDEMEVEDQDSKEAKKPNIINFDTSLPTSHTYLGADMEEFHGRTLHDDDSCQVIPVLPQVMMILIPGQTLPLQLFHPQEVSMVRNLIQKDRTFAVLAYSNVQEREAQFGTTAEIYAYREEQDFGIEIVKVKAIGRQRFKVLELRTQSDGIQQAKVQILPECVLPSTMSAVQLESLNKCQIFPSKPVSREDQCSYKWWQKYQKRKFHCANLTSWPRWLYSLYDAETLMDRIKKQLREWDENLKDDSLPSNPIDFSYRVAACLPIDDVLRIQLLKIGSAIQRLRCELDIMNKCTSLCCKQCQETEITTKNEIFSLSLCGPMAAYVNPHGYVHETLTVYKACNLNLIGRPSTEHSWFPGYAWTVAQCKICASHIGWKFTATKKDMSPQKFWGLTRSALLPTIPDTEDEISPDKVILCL
Sequence of CRBN-DDB1 (Q16531 whole entry partner): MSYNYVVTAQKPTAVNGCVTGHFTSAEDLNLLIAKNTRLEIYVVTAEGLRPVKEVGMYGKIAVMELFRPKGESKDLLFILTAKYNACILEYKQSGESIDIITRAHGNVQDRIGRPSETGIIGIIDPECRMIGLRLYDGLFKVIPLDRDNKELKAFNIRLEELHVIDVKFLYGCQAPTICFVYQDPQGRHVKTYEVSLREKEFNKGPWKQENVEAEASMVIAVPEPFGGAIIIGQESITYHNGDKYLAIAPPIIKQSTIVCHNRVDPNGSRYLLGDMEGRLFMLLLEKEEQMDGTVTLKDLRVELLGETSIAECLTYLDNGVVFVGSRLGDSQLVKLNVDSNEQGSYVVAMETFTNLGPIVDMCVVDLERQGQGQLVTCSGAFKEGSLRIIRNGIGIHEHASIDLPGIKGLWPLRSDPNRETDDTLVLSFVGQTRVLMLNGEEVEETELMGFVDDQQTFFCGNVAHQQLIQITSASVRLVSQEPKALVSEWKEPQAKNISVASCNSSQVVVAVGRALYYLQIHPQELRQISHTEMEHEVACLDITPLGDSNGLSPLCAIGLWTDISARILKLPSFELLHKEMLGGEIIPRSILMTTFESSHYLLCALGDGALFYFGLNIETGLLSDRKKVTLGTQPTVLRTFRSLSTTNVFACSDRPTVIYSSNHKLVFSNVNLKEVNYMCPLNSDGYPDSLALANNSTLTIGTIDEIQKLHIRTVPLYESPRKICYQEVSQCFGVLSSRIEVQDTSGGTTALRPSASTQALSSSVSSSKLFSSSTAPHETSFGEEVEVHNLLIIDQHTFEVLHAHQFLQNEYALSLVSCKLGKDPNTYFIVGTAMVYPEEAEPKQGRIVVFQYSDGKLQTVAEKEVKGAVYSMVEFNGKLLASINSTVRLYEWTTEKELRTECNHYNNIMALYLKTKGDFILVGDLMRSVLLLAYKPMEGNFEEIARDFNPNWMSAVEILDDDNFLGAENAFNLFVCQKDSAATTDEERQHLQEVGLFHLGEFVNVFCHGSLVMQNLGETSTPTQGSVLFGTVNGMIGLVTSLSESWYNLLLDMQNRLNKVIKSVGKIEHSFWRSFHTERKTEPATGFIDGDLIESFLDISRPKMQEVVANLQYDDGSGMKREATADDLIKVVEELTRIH

Row | SMILES | pKd
1 | O=C1CCC(Oc2cccc3cccnc23)C(=O)N1 (stereo not drawn) [Compound 147] | > 5.00
2 | Cn1ccc2cc(OC3CCC(=O)NC3=O)ccc21 (stereo not drawn) [Compound 140] | > 5.00

Same assay, conditions: FP displacement of (−)-Thalidomide-Alexa Fluor or Pomalidomide-fluorescein probe; 400 nM CRBN-DDB1, 5 nM probe; Compounds of the Present Invention

Row | SMILES | pKd
3 | COc1ccc(C)cc1NC1CCC(=O)NC1=O (stereo not drawn) [Compound 42] | > 5.00
4 | Cc1cccc(N(C)C2CCC(=O)NC2=O)c1 (stereo not drawn) [Compound 18] | > 5.00
5 | CC(C)(C)OC(=O)N1CCN(c2cccc(NC3CCC(=O)NC3=O)c2)CC1 (stereo not drawn) [Compound 82] | > 5.00
6 | O=C1CCC(Nc2ccc(Cl)cc2)C(=O)N1 (stereo not drawn) [Compound 37] | > 5.00
7 | O=C1CCC(Nc2ccc(-c3ccccc3)cc2)C(=O)N1 (stereo not drawn) [Compound 6] | > 5.00
8 | CC(C)(C)OC(=O)N1CCc2cc(NC3CCC(=O)NC3=O)ccc2C1 (stereo not drawn) [Compound 79] | > 5.00
9 | CN(c1cccc(C(F)(F)F)c1)C1CCC(=O)NC1=O (stereo not drawn) [Compound 58] | > 5.00
10 | CC(C)(C)OC(=O)n1cc(C#N)c(NC2CCC(=O)NC2=O)n1 (stereo not drawn) [Compound 95] | < 4.00
11 | CN1CCN(c2ccc(NC3CCC(=O)NC3=O)cc2)CC1 (stereo not drawn) [Compound 66] | > 5.00
12 | CN(C1COC1)C1CCC(=O)NC1=O (stereo not drawn) [Compound 97] | < 4.00
